In experiment [1] the test system is MDA-MB-231. The experiment in a line: cells. Conditions: Homo sapiens, MDA-MB-231, 96 h.
For experiment [2], the system named is SK-OV-3. The experiment in a line: cells. Particulars: Homo sapiens, SK-OV-3, 96 h.
The subject of experiment [3] is MDA-MB-231. The experiment in a line: Induction of apoptosis in human MDA-MB-231 cells assessed as caspase 3 cleavage at 10 nM after 24 hrs by Western blot analysis. In kind it is functional, cell-based. (In western blotting, separated proteins are transferred to a membrane and probed.)
Experiment [4] relates to MDA-MB-231. The experiment is described as follows: Induction of apoptosis in human MDA-MB-231 cells assessed as caspase 8 cleavage at 10 nM after 24 hrs by Western blot analysis. Format: functional, cell-based.
In experiment [5] the test system is MDA-MB-231. The experiment in a line: Induction of apoptosis in human MDA-MB-231 cells assessed as PARP cleavage at 300 nM after 24 hrs by Western blot analysis. In kind it is functional, cell-based.
Experiment [6] relates to SK-OV-3. The experiment in a line: Induction of apoptosis in human SKOV3 cells assessed as caspase 3 cleavage at 10 nM after 24 hrs by Western blot analysis. Format: functional, cell-based.
Experiment [7] has as its system SK-OV-3. The experiment in a line: Induction of apoptosis in human SKOV3 cells assessed as caspase 8 cleavage at 10 nM after 24 hrs by Western blot analysis. Format: functional, cell-based.
In experiment [8] the test system is SK-OV-3. The experiment is described as follows: Induction of apoptosis in human SKOV3 cells assessed as PARP cleavage at 300 nM after 24 hrs by Western blot analysis. In kind it is functional, cell-based.
Experiment [9] addresses Baculoviral IAP repeat-containing protein 2 (Homo sapiens, UniProt Q13490). The experiment in a line: Binding affinity to BIR3 domain of cIAP1 by fluorescence polarization assay.
The subject of experiment [10] is MDA-MB-231. The experiment is described as follows: Induction of apoptosis in human MDA-MB-231 cells assessed as caspase 3 cleavage at 3 nM after 24 hrs by Western blot analysis. Format: functional, cell-based.
Experiment [11] concerns MDA-MB-231. The experiment in a line: Induction of apoptosis in human MDA-MB-231 cells assessed as caspase 8 cleavage at 3 nM after 24 hrs by Western blot analysis. Format: functional, cell-based.
Experiment [12] deals with MDA-MB-231. The experiment is described as follows: Induction of apoptosis in human MDA-MB-231 cells assessed as PARP cleavage at 3 nM after 24 hrs by Western blot analysis. Format: functional, cell-based.
Experiment [13] deals with SK-OV-3. The experiment is described as follows: Induction of apoptosis in human SKOV3 cells assessed as caspase 3 cleavage at 3 nM after 24 hrs by Western blot analysis. In kind it is functional, cell-based.
For experiment [14], the system named is SK-OV-3. The experiment is described as follows: Induction of apoptosis in human SKOV3 cells assessed as caspase 8 cleavage at 3 nM after 24 hrs by Western blot analysis. Format: functional, cell-based.
The subject of experiment [15] is SK-OV-3. The experiment is described as follows: Induction of apoptosis in human SKOV3 cells assessed as PARP cleavage at 3 nM after 24 hrs by Western blot analysis. Format: functional, cell-based.

Consider eleven compounds from ChEMBL document CHEMBL2157891 (J Med Chem, 2012).

Structures are written as SMILES. The source made the active and inactive calls. The rule behind the calls is not given here.

For orientation: IC50 means the concentration at which inhibition is half-maximal. Read a high IC50 as a need for much substance. As usually defined, the Ki is the dissociation constant of the complex between target and ligand, obtained from inhibition or displacement. Low values mean a stronger hold on the target, high ones a looser hold on the target.

In the case of `CN[C@@H](C)C(=O)N[C@H]1CN(C(=O)CCCCCCCCCCC(=O)N2CC[C@H]3CC[C@@H](C(=O)NC(c4ccccc4)c4ccccc4)N3C(=O)[C@@H](NC(=O)[C@H](C)NC)C2)CC[C@H]2CC[C@@H](C(=O)NC(c3ccccc3)c3ccccc3)N2C1=O`, the IC50 in [1] turned out to be 10.6 nM; in experiment [2], 12 nM.
`CN[C@@H](C)C(=O)N[C@H]1CN(C(C)=O)CC[C@H]2CC[C@@H](C(=O)NC(c3ccccc3)c3ccccc3)N2C1=O`: the outcome in experiment [3], in [4], in [5], in experiment [6], in experiment [7] and in experiment [8] was Active. Besides, the values for the IC50 in experiment [1] and in [2] were 115 nM and 250 nM, respectively.
Take `CN[C@@H](C)C(=O)N[C@H]1CN(C(=O)CCC(=O)N2CC[C@H]3CC[C@@H](C(=O)NC(c4ccccc4)c4ccccc4)N3C(=O)[C@@H](NC(=O)[C@H](C)NC)C2)CC[C@H]2CC[C@@H](C(=O)NC(c3ccccc3)c3ccccc3)N2C1=O`: the half-inhibitory concentration (IC50) is 13.8 nM in experiment [1] and 27 nM in experiment [2].
`CN[C@@H](C)C(=O)N[C@H]1CCCC[C@H]2CC[C@@H](C(=O)N[C@@H](c3ccccc3)c3cn(CCCCc4ccc(CCCCn5cc([C@@H](NC(=O)[C@@H]6CC[C@@H]7CCCC[C@H](NC(=O)[C@H](C)NC)C(=O)N76)c6ccccc6)nn5)cc4)nn3)N2C1=O` displayed an inhibitory constant (Ki) in [9] of 0.5 nM. Moreover, the IC50 in experiment [1] came out at 6.8 nM; in experiment [2], 16 nM.
In the case of `CN[C@@H](C)C(=O)N[C@H]1CN(C(=O)CCCCCCCCC(=O)N2CC[C@H]3CC[C@@H](C(=O)NC(c4ccccc4)c4ccccc4)N3C(=O)[C@@H](NC(=O)[C@H](C)NC)C2)CC[C@H]2CC[C@@H](C(=O)NC(c3ccccc3)c3ccccc3)N2C1=O`, the outcome in experiment [10], in experiment [11], in experiment [12], in experiment [13], in [14] and in experiment [15] was Active. The IC50 in experiment [1] is 7.5 nM; in [2], 3.1 nM.
Turning to `CN[C@@H](C)C(=O)N[C@H]1CN(C(=O)CCCCc2ccc(CCCCC(=O)N3CC[C@H]4CC[C@@H](C(=O)NC(c5ccccc5)c5ccccc5)N4C(=O)[C@@H](NC(=O)[C@H](C)NC)C3)cc2)CC[C@H]2CC[C@@H](C(=O)NC(c3ccccc3)c3ccccc3)N2C1=O`, the outcome in [10], in [11], in experiment [12], in experiment [13], in experiment [14] and in [15] was Active. In addition, the values for the IC50 in experiment [1] and in experiment [2] were 3.4 nM and 9.6 nM, respectively.
For the compound `CN[C@@H](C)C(=O)N[C@H]1CN(C(=O)CCCCC(=O)N2CC[C@H]3CC[C@@H](C(=O)NC(c4ccccc4)c4ccccc4)N3C(=O)[C@@H](NC(=O)[C@H](C)NC)C2)CC[C@H]2CC[C@@H](C(=O)NC(c3ccccc3)c3ccccc3)N2C1=O`, the figures for the IC50 in experiment [1] and in [2] were 14.8 nM and 9.9 nM, respectively.
`CN[C@@H](C)C(=O)N[C@H]1CN(C(=O)c2ccc(C(=O)N3CC[C@H]4CC[C@@H](C(=O)NC(c5ccccc5)c5ccccc5)N4C(=O)[C@@H](NC(=O)[C@H](C)NC)C3)cc2)CC[C@H]2CC[C@@H](C(=O)NC(c3ccccc3)c3ccccc3)N2C1=O`: the 50% inhibitory concentration (IC50) in experiment [1] was determined as 50.8 nM; in [2], 180 nM.
As to `CN[C@@H](C)C(=O)N[C@H]1CCCC[C@H]2CC[C@@H](C(=O)N[C@@H](c3ccccc3)c3cn(CCCCCCCCn4cc([C@@H](NC(=O)[C@@H]5CC[C@@H]6CCCC[C@H](NC(=O)[C@H](C)NC)C(=O)N65)c5ccccc5)nn4)nn3)N2C1=O`, in experiment [9], the IC50 came out at 2.8 nM and the inhibition constant (Ki) is less than 0.5 nM.
In the case of `CN[C@@H](C)C(=O)N[C@H]1CN(C(=O)CCCCOCCCCC(=O)N2CC[C@H]3CC[C@@H](C(=O)NC(c4ccccc4)c4ccccc4)N3C(=O)[C@@H](NC(=O)[C@H](C)NC)C2)CC[C@H]2CC[C@@H](C(=O)NC(c3ccccc3)c3ccccc3)N2C1=O`, the IC50 in [1] and in [2] was 4.7 nM each time.
As for `CN[C@@H](C)C(=O)N[C@H]1CN(C(=O)CCCCCCC(=O)N2CC[C@H]3CC[C@@H](C(=O)NC(c4ccccc4)c4ccccc4)N3C(=O)[C@@H](NC(=O)[C@H](C)NC)C2)CC[C@H]2CC[C@@H](C(=O)NC(c3ccccc3)c3ccccc3)N2C1=O`, the IC50 was found to be 17.2 nM in [1] and 11 nM in experiment [2].
